Source: PMC9953660, “Using ΔK280 TauRD Folding Reporter Cells to Screen TRKB Agonists as Alzheimer’s Disease Treatment Strategy” (Biomolecules, 2023)

How the values were obtained:
[1] = tested on: TRKB knockdown ΔK280 TauRD-DsRed SH-SY5Y cells; assay: TRKB RNA interference: TRKB protein level and neurite outgrowth; format: cell-based, human; details: 10 μM
Experimental: ΔK280 TauRD-DsRed SH-SY5Y cells were plated in the presence of 10 μM retinoid acid (RA; Sigma-Aldrich) to promote neuronal differentiation. The next day, cells were added with congo red or ZN/VB compounds (2–10 μM) for 8 h pretreatment, followed by inducing ΔK280 TauRD-DsRed expression with doxycycline (2 μg/mL). On day 8, cell nuclei were stained with Hoechst 33342 (0.1 μg/mL; Thermo Scientific), and cell images acquired using ImageXpress Micro Confocal High-Content Imaging System (Molecular Devices, San Jose, CA, USA) with DAPI (4′,6-diamidino-2-phenylindole, for nuclei) and TRITC (tetramethylrhodamine, for DsRed) fluorescence filter sets. To detect ROS changes, 10 μM compound-treated cells were stained with Hoechst 33342 and 2′,7′-dichlorodihydrofluorescein diacetate (H2DCFDA, 10 μM) fluorescein (Invitrogen, Carlsbad, CA, USA), and cell images captured using DAPI and FITC (fluorescein isothiocyanate, for DCF) filters. […] The nuclei and neurite images were acquired with DAPI and TRITC fluorescence filters, respectively. […]
Cells were collected and protein extracted as described. […] Protein signals were detected with chemiluminescent substrate (Millipore) using the ImageQuant™ LAS 4000 imager and analysis software (GE Healthcare, UK). […]

[2] = tested on: ΔK280 TauRD-DsRed SH-SY5Y cells; assay: High-content neurite outgrowth analysis (TUBB3 stain); format: cell-based, human; details: 10 μM
Experimental: ΔK280 TauRD-DsRed SH-SY5Y cells were plated in the presence of 10 μM retinoid acid (RA; Sigma-Aldrich) to promote neuronal differentiation. The next day, cells were added with congo red or ZN/VB compounds (2–10 μM) for 8 h pretreatment, followed by inducing ΔK280 TauRD-DsRed expression with doxycycline (2 μg/mL). On day 8, cell nuclei were stained with Hoechst 33342 (0.1 μg/mL; Thermo Scientific), and cell images acquired using ImageXpress Micro Confocal High-Content Imaging System (Molecular Devices, San Jose, CA, USA) with DAPI (4′,6-diamidino-2-phenylindole, for nuclei) and TRITC (tetramethylrhodamine, for DsRed) fluorescence filter sets. To detect ROS changes, 10 μM compound-treated cells were stained with Hoechst 33342 and 2′,7′-dichlorodihydrofluorescein diacetate (H2DCFDA, 10 μM) fluorescein (Invitrogen, Carlsbad, CA, USA), and cell images captured using DAPI and FITC (fluorescein isothiocyanate, for DCF) filters. For assessing differential neurite outgrowth, 10 μM compound-treated cells were fixed (paraformaldehyde, 4%), permeabilized (Triton X-100, 0.3%), and stained with class III β-tubulin (TUBB3, 1:1000) primary antibody (#802001, BioLegend, San Diego, CA, USA), followed by donkey anti-rabbit Alexa Fluor® 555 secondary antibody (1:1000; #A-31572, Invitrogen) and DAPI (0.1 μg/mL; Sigma-Aldrich) stains. The nuclei and neurite images were acquired with DAPI and TRITC fluorescence filters, respectively. All analyses of images were performed using MetaXpress software (Molecular Device).

Q: What does the source list for O=C(/C=C/c1ccccc1O)c1c(O)c2ccccc2oc1=O [ZN-015, (E)-4-hydroxy-3-(3-(2-hydroxyphenyl)acryloyl)-2H-chromen-2-one]?
A: neurite process ([1]; TRKB knockdown): 2.17; neurite process ([1]; scrambled shRNA): 2.35; neurite branch ([2]; induced untreated 0.74): 0.92; neurite process ([2]; induced untreated 2.07): 2.34; neurite length ([2]; induced untreated 30.6 μm): 40.7 μm
